These results are taken from patent US7033999B2, “Nitrosated and nitrosylated heme proteins” (Brigham and Women's Hospital, priority 1991, dated 2006).

Series [1] deals with gel-filtered platelets. The series is described as follows: Intracellular platelet cyclic GMP (radioimmunoassay). It counts as cell-based, human. How it is done: (§1) Venous blood, anticoagulated with 1-mM trisodium citrate, was obtained from volunteers who had not consumed acetylsalicylic acid for at least ten days. Platelet-rich plasma (PRP) was prepared by centrifugation at 150 g for ten minutes at 25° C. Platelet counts were determined with a Coulter counter (model ZM; Coulter Electronics, Hialeah, Fla.).
(§2) Platelets were gel-filtered on a 4× 10 cm column of Sepharose 2B in Tyrode's Hepes buffer as described previously (Hawiger et al., Nature 2831:195–198 (1980), herein incorporated by reference). Platelets were typically suspended at a concentration of 1.5×10^8/ml and were used within 30 minutes of preparation. Platelet aggregation was monitored using a standard nephelometric technique (Born, et al., J. Physiol. 168:178–195 (1963), herein incorporated by reference), in which 0.3-ml aliquots of gel-filtered platelets were incubated at 37° C. and stirred at 1000 rpm in a PAP-4 aggregometer (Biodata, Hatboro, Pa.). Gel-filtered platelets were preincubated with t-PA or S—NO-t-PA for up to 45 minutes and aggregations induced with 5 μM ADP or 0.025 U/ml thrombin.
The antiplatelet actions of S-nitrosothiols are mediated by cyclic GMP. Measurements of cGMP were performed by radioimmunoassay. Gel-filtered platelets were pre-incubated for 180 seconds with S—NO-t-PA (9 μM), and related controls. […]

Series [2] deals with gel-filtered platelets. The series is described as follows: Platelet aggregation (nephelometric aggregometry). It counts as cell-based, human. The settings on record: 5 μM ADP. On the procedure:
as §1, §2
Aggregations were quantified by measuring the maximal rate or extent of light transmittance and expressed as a normalized value relative to control aggregations.
The effect of S-nitroso-BSA on platelet aggregation was studied, using a gel-filtered platelet preparation, as previously described (Hawiger et al., Nature 2831:195 (1980)) and suspended at 150,000 platelets/ul in HEPES buffer, pH 7.35. S—NO-BSA was incubated with platelets for ten minutes at 37° C. in a PAP-4 aggregometer (BioData, Hatboro, Pa.), after which aggregations were induced with 5 μM ADP. Aggregations were quantified by measuring the extent of change of light transmittance and expressed as a normalized value relative to control aggregations.

Series [3] deals with T1, glu-plasminogen (Homo sapiens, UniProt P00747).
T1 construct: Glu-plasminogen was purified from fresh frozen plasma; from tissue; host or cells: fresh frozen plasma (lysine-Sepharose, then benzamidine-Sepharose)
T1 sequence (P00747 20-810 limits assumed): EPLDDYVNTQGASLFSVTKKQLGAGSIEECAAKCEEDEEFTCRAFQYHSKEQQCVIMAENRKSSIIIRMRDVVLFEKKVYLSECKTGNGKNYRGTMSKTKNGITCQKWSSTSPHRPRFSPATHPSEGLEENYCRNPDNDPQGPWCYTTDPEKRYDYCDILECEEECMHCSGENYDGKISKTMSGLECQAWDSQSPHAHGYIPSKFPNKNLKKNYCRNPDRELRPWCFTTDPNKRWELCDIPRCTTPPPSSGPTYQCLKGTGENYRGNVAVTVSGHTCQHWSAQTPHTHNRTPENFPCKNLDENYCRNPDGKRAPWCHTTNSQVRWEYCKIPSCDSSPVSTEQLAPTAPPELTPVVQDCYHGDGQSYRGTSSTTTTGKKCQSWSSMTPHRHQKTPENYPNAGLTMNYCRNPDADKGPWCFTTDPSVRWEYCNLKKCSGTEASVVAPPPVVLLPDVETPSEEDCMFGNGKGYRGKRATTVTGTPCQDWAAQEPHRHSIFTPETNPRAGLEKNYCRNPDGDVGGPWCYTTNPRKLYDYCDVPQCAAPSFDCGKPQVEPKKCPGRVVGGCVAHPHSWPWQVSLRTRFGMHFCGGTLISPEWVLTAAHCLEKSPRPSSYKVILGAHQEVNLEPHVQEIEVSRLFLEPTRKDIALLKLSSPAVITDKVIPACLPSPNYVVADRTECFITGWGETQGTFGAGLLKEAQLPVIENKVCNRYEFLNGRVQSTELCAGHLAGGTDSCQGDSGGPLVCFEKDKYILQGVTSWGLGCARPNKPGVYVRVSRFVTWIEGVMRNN
Description: Coupled enzyme assay: activation of glu-plasminogen (S2251), with and without fibrinogen. The class given is biochemical. The settings on record: for Km / kcat: GLU-plasminogen (S2251) activation. How it is done:
Glu-plasminogen was purified from fresh frozen plasma thawed at 37° C. using a modification of the method of Deutsch and Mertz (Deutsch et al., Science 170:1095–1096 (1970), herein incorporated by reference). Plasma was passed over a lysine-Sepharose column and the column washed with 0.3 M sodium phosphate, pH 7.4, 3 mM EDTA. Plasminogen was eluted from the column with 0.2 M epsilon-aminocaproic acid, 3 mM EDTA, pH 7.4 Contaminant plasmin was removed by passing the eluted column over benzamidine sepharose 2B. The plasminogen obtained was subsequently dialyzed before use against 10 mM sodium phosphate, pH 7.4, 0.15 M NaCl.
In the coupled enzyme assay, t-PA and S—NO-t-PA activities were assayed using the […] S2251. In selected experiments, fibrinogen stimulation of enzymatic activity was assessed at a fibrinogen concentrations of 1 mg./ml. Substrate hydrolysis was measured spectrophotometrically with a Dynatech MR 5000 Card Reader (Dynatech, Chantilly, Va.) in TBS, pH 7.4, at 25° C. Initial reaction velocity was determined from the slope of the plot of absorbance (at 405 nm)/time vs. time (Randy, M. Biochim. Biophysica Acta 704:461–469 (1982)) using glu-plasminogen concentrations ranging from 0.1–10 μM at an S2251 concentrations of 0.8 mM. Kinetic parameters were determined from initial rates by double reciprocal plot analysis.

Series [4] concerns endothelium-denuded rabbit aortic strips. Description: Vessel relaxation bioassay. It counts as cell-based. The following applies: for % Relaxation: 150 nM, contraction with 1 μM epinephrine, mean ±S.D., n=4. How it is done:
New Zealand White female rabbits weighing 3–4 kg were anesthetized with 30 mg/kg IV sodium pentobarbital. Descending thoracic aortae were isolated and placed immediately in a cold physiologic salt solution (Kreb's) (mM): NaCl, 118; CKl, 4.7; CaCl2, 2.5; MgSO4, 1.2; KH2PO4, 1.2; NaHCO3, 12.5; and D-glucose, 11.0. The vessels were cleaned of adherent connective tissue, and the endothelium removed by gentle rubbing with a cotton tipped applicator inserted into the lumen, after which the vessel was cut into 5 mm rings. The rings were mounted on stirrups and connected to transducers (model FT03C Grass Instruments, Quincy, Mass.) by which changes in isometric tension were recorded.
Samples were added to a standard bioassay in which vessel rings were suspended in glass chambers containing seven mil of oxygenated Kreb's buffer, in a standard bioassay (Cook et al., Am. J. Physiol. 28:H804 (1989), herein incorporated by reference). Sustained contractions, to 2 gm tension, were induced with 1 μM epinephrine, after which the effects of t-PA and S—NO-t-PA were tested. In certain experiments the guanylate cyclase inhibitor, methylene blue, was preincubated with vessel rings for 15 minutes prior to initiation of contractions.
The vasodilatory actions of S-nitroso-BSA were examined in a standard bioassay containing endothelium-denuded rabbit aortic strips in Kreb's buffer, pH 7.5, at 37°, as described in Example 6.
In vessel experiments, relaxations to S—NO-BSA are expressed as-percent of tone induced by 1.0 μM norepinephrine.

A word on the Km: it is the substrate concentration at which the rate is half of its maximum. As a reminder, the kcat is the number of substrate molecules converted per active site and unit of time at saturation. For “S—NO-t-PA: derived from the nitrosylation of tissue-type plasminogen activator (t-PA)”, the “increase in intracellular cyclic GMP above basal levels” value in series [1] (9 μM, 180 seconds, basal in the presence of t-PA) is recorded as 85%. The “elevation in platelet cGMP after preincubation with methylene blue” value in series [1] (methylene blue 10 μM for ten minutes) is reported as “entirely prevented”. Moreover, the “effect on platelet aggregation, synthesized with authentic EDRF” value in series [2] (333 nM, preincubated ten minutes) is on record as “inhibition of platelet aggregation”. Further, the “inhibition in rate and extent of aggregation” value in series [2] (1.4 μM, mean ±S.D., n=4) was 50±16%. The “fibrinogen stimulation greater than t-PA” value in series [3] (0.1 μM plasminogen, fibrinogen 1 mg./ml) was 3.5 fold. Besides, in series [3], the Km came to 3.8 µM and the turnover number (kcat) was 0.262 s⁻¹. The “degree of fibrinogen stimulation compared with wild type t-PA” value in series [3] (physiologic (1 μM) plasminogen) is “equivalent”. Further, the “catalytic efficiency greater than that of native t-PA” value in series [3] (plasminogen activation) is 23%. For the same substance, in series [4], the “% Relaxation” value was 20 ± 7 %. For the same substance, in series [4] (methylene blue preincubated 15 minutes), the “relaxations in presence of guanylate cyclase inhibitor methylene blue” value is listed as “attenuated”.
In the case of “t-PA: tissue-type plasminogen activator, provided by Genentech”, in series [3], the Km was 3.5 µM and the kcat is 0.200 s⁻¹. Also, the “% Relaxation” value in series [4] is reported as 2.5 ± 4%.
